Experimental data published in US20210401863A1, “TREATMENT AND PREVENTION OF NEISSERIA GONORRHOEAE INFECTION USING CMP-ACTIVATED NONULOSONATE ANALOG COMPOUNDS” (NATIONAL RESEARCH COUNCIL OF CANADA, priority 2015, published 2021).
“Also recorded” adds a separate entry of the source.

Experiments:
[1] = molecular target: T1, gonococcal LOS sialyltransferase (Lst) (Neisseria gonorrhoeae, UniProt P72074); assay: mAb 3F11 binding by flow cytometry (incorporation of NulO on LNnT LOS by Lst); type: cell-based, N. gonorrhoeae F62 ΔlgtD; conditions: F62 ΔlgtD grown in media with 20 μg/mL CMP-NulO
T1 construct: CMP-KDN served as a substrate for gonococcal Lst in the context of live bacteria; endogenous in cells; host or cells: N. gonorrhoeae F62 ΔlgtD (live bacteria)
T1 sequence (P72074 whole entry): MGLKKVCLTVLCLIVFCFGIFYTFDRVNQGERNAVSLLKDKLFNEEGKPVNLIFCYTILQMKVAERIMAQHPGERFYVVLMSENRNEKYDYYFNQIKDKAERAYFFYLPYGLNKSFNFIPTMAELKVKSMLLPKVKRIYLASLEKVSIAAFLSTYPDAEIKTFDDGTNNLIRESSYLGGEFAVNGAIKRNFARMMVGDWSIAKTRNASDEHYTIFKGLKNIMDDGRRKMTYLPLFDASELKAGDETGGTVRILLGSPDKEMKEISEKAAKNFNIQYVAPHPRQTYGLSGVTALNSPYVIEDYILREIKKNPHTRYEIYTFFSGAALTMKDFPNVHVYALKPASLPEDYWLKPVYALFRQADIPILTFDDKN
Experimental: FIG. 1: CMP-KDN serves as a substrate for gonococcal LOS and incorporation of KDN on gonococcal lacto-N-neotetraose LOS enhances factor H (FH) binding. A. Incorporation of KDN by gonococci. Gonococcal strain F62 ΔlgtD (expresses lacto-N-neotetraose (LNnT) from Hepl) was grown in media containing CMP-KDN (20 μg/mL) and binding of mAb 3F11 was measured by flow cytometry. mAb 3F11 binds only to […] LNnT; substitution of the terminal Gal of LNnT, for example with a NulO, will decrease mAb 3F11 binding. Approximately 5×10^7 bacteria were incubated with mAb 3F11 tissue culture supernatants for 15 minutes at 37° C. Binding of mAb 3F11 was disclosed with anti-mouse IgM FITC (Sigma; dilution of 1:100). Bacteria grown in CMP-Neu5Ac or in media alone were used as positive and negative controls for sialylation, respectively. A representative histogram is shown in the upper panel. […] B. Factor H (FH) binding to gonococci grown in CMP-KDN. Approximately 5×10^7 bacteria grown in media alone (no sialic acid), media plus CMP-Neu5Ac (20 μg/mL; positive control for FH binding) or in media containing CMP-KDN (20 μg/mL) were incubated with purified human FH (20 μg/mL) in HBSS** for 15 minutes at 37° C. and bound FH was detected with affinity isolated goat anti-human FH followed by anti-goat IgG FITC (Sigma; 1:100 dilution). A representative histogram is shown in the upper panel.
FIG. 3: CMP-KDN7N3 serves as a substrate for gonococcal Lst resulting in incorporation of KDN7N3 on gonococcal lacto-N-neotetraose (LNnT) LOS—Incorporation of KDN7N3 by gonococci. Gonococcal strain F62ΔlgtD (expresses lacto-N-neotetraose (LNnT) from Hepl) was grown in media containing CMP-KDN7N3 (20 μg/mL) and binding of mAb 3F11 was measured by flow cytometry. mAb 3F11 binds only to […] LNnT; substitution of the terminal Gal of LNnT, for example with a NulO, will decrease mAb 3F11 binding. Approximately 5×10^7 bacteria were incubated with mAb 3F11 tissue culture supernatants for 15 minutes at 37° C. Binding of mAb 3F11 was disclosed with anti-mouse IgM FITC (Sigma; dilution of 1:100). […]

N. gonorrhoeae H041 = assay: BALB/c mouse vaginal colonization model; type: in vivo; conditions: 10 μg intravaginally daily; Premarin treated BALB/c mice
Experimental: FIG. 2: Female BALB/c mice 5-6 weeks of age (Jackson Laboratories) in the diestrus phase of the estrous cycle were started on treatment (that day) with 0.5 mg of Premarin (Pfizer) given subcutaneously on each of three days; −2, 0 and +2 days (before, the day of and after inoculation) to prolong the estrus phase of the cycle and promote susceptibility to N. gonorrhoeae infection. Antibiotics (vancomycin, colistin, neomycin, trimethoprim and streptomycin) that were ineffective against N. gonorrhoeae were also used to reduce competitive microflora. Mice (n=40) were then infected with 10^6 CFU of strain H041. Three groups of mice (n=10/group) were treated with 10 μg intravaginally daily (first dose was administered 30 minutes before the introduction of bacteria) with one of the following CMP-NulOs in normal saline: CMP-Leg5Ac7Ac, CMP-Neu5Ac9Az or CMP-KDN. A fourth group (n=10) was given saline (vehicle control). Vaginal swabs were obtained daily from each animal, serially diluted and plated on chocolate agar containing vancomycin, colistin, neomycin, trimethoprim and streptomycin (VCNTS) to quantify bacterial loads. A. Median time to clearance was estimated using Kaplan-Meier survival curves; the times to clearance were compared between groups using a log-rank test. P<0.0001 for the control versus each of the treatment groups. Time to clearance between each of the treatment groups was similar (P>0.05). B. The mean area under the curve (log10 CFU vs. time) was computed for each mouse to estimate the bacterial burden over time (cumulative infection); the means under the curves were compared between groups using the Kruskal-Wallis nonparametric rank sum test because distributions were skewed or kurtotic. Groups were compared using Dunn's multiple comparison test. ****, P<0.0001; **, P<0.01; *, P<0.05. The differences among the groups that received CMP-NulOs were not significant.
The mouse model experiments and statistical analysis were conducted as described in the art and in U.S. Pat. No. 9,765,106. […]

Q: Which “binding of mAb 3F11 (use as substrate by gonococcal Lst)” value [1] does the source give for `Nc1ccn([C@@H]2O[C@H](COP(=O)(O)O[C@@]3(C(=O)O)CC(O)[C@@H](O)C([C@H](O)[C@H](O)CO)O3)C(O)C2O)c(=O)n1` (stereo partly drawn) [CMP-KDN, cytidine 5′-monophospho-3-deoxy-D-glycero-D-galacto-nonulosonic acid] here?
A: decreased binding of mAb 3F11 similarly

Q: What about the “attenuation of N. gonorrhoeae H041 infection” value (N. gonorrhoeae H041) of the same compound?
A: some efficacy; also recorded: significantly attenuated; also recorded: just as efficacious in an animal model of colonization
